Data: PMC1142193 (Evidence-based Complementary and Alternative Medicine, 2005)
“Also recorded” adds a separate entry of the source.

Target: SARS-CoV 3CL^Pro (Severe acute respiratory syndrome coronavirus, UniProt P0C6U8)
Test: biochemical
Assay type: biochemical
Conditions: for IC50: IC50, inhibition of SARS 3CL^Pro activity

Row | Compound | Inhibition of 3CL^Pro activity (in words) | IC50 [µM] | Inhibition of 3CL^Pro activity at concentrations up to 100 µM (in words)
1 | O=c1c(O)cc([C@H]2Oc3cc(O)cc(O)c3C[C@H]2O)cc2c([C@H]3Oc4cc(O)cc(O)c4C[C@H]3O)cc(O)c(O)c12 [TF1, Theaflavin] | found to inhibit 3CL^Pro | 56 | –
2 | O=C(O[C@@H]1Cc2c(O)cc(O)cc2O[C@@H]1c1ccc(O)c(O)c1)c1cc(O)c(O)c(O)c1 [ECg, epicatechin gallate] | did not inhibit | ≥ 100 | not able to inhibit
3 | Cn1c(=O)c2c(ncn2C)n(C)c1=O [Caffeine, caffeine, reference compound] | did not inhibit; also recorded: did not influence 3CL^Pro activity | – | not able to inhibit
4 | Cn1c(=O)c2[nH]cnc2n(C)c1=O [Theophylline, theophylline, reference compound] | did not inhibit; also recorded: did not influence 3CL^Pro activity | – | not able to inhibit
5 | Oc1cc(O)c2c(c1)O[C@H](c1ccc(O)c(O)c1)[C@H](O)C2 [EC, epicatechin] | did not inhibit | ≥ 100 | not able to inhibit
6 | Oc1cc(O)c2c(c1)O[C@H](c1cc(O)c(O)c(O)c1)[C@H](O)C2 [EGC, epigallocatechin] | did not inhibit | ≥ 100 | not able to inhibit
